The results in this text go back to US9616065B2, “Compositions useful in treating brain-related diseases or disorders and methods using same” (priority 2013, dated 2017).

One data set addresses SmDAT (Schistosoma mansoni, UniProt E9LD23). In words: Transport inhibition constants, SmDAT. Format: cell-based.
Another data set deals with SmSERT (Schistosoma mansoni, UniProt Q3I1M7). The data set can be described thus: Transport inhibition constants, SmSERT. Format: cell-based.
In data set [1] the test system is mSERT mutant YETQ-L563V. The data set can be described thus: Substrate-elicited efflux, mSERT mutant YETQ-L563V. Format: cell-based, mouse. As to conditions: up to highest testable concentration. On the procedure:
Efflux is terminated by collecting the supernatant. Both cells and supernatant are counted by liquid scintillation counting. Efflux is calculated as ratio of supernatant over supernatant and cells.

For data set [2], the target named is T1, human SERT amino acid 112 mutant (N112C) (Homo sapiens, UniProt P31645, N112C).
T1 construct: The templates were full-length and nontagged human SERT in pcdna3.1; expressed in transfected cells; host or cells: COS-7
In words: Amphetamine-elicited efflux, human SERT amino acid 112 mutant. The class given is cell-based. As to conditions: 1 μM amphetamine. On the procedure:
(§1) COS-7 cells were maintained under the same conditions as above. Efflux experiments were performed 2 days after cell transfection with hSERT or empty vector and plating of the cells in 24-well plates. Cells were washed with room temperature PBS-CM and then loaded with 50 nM [^3H]-serotonin for 1 h. After preloading, cells were washed twice with buffer and then incubated for 10 min with or without substrates at room temperature. After incubation, the supernatant was collected, liquid scintillation fluid added, and the samples counted (Beckman LS-6500 Multi-purpose Scintillation Counter; Beckman Coulter, Brea, Calif.). The cells were solubilized in a solution of 0.1% sodium dodecyl sulfate and 0.1 M NaOH; liquid scintillation fluid was added and tubes were counted as above. All assays were done in quadruplicate.
(§2) The percentage of [^3H]-serotonin efflux among different treatments was calculated by adding counts of supernatant plus cell lysis, with the supernatant counts then divided by the total and multiplied by 100 to yield the percentage of efflux.
(§3) To investigate the role of central domains formed by TMD1 and 6 within SERT, chimeras were produced between the human and parasite SERT and TMD1 and 2 or 6 and 7, respectively, were replaced in the human SERT with their parasite counterparts. […]

Another data set addresses wild-type human SERT (Homo sapiens, UniProt P31645). The data set can be described thus: Amphetamine-elicited efflux, wild-type human SERT. The class given is cell-based. The arrangement: The templates were full-length and nontagged human SERT in pcdna3.1; expressed in transfected cells; host or cells: COS-7, HEK293 or MDCK (uptake); COS-7 (efflux). The settings on record: 1 μM amphetamine. On the procedure:
as §1, §2, §3

Data set [3] deals with T2, human SERT amino acid 328 mutant (D328C) (Homo sapiens, UniProt P31645, D328C).
T2 construct: The templates were full-length and nontagged human SERT in pcdna3.1; expressed in transfected cells; host or cells: COS-7
The data set can be described thus: Amphetamine-elicited efflux, human SERT amino acid 328 mutant. Format: cell-based. As to conditions: 1 μM amphetamine. As to the method: as §1, §2, §3

Data set [4] relates to mSERT mutant YETQ-L563V. In words: Serotonin uptake kinetics, mSERT mutant YETQ-L563V. As to conditions: read-out: apparent affinity (Km). Format: cell-based, mouse.
Substrate in data set [5]: NCCc1c[nH]c2ccc(O)cc12
In words: cells, lysate or membranes. As to conditions: other: WT mSERT.

Where [6] appears, read: read-out: Ki transport inhibition SmDAT.

Where two headings read alike, the source gives them in different places.

Chain of SmSERT (Q3I1M7 entry or part of it): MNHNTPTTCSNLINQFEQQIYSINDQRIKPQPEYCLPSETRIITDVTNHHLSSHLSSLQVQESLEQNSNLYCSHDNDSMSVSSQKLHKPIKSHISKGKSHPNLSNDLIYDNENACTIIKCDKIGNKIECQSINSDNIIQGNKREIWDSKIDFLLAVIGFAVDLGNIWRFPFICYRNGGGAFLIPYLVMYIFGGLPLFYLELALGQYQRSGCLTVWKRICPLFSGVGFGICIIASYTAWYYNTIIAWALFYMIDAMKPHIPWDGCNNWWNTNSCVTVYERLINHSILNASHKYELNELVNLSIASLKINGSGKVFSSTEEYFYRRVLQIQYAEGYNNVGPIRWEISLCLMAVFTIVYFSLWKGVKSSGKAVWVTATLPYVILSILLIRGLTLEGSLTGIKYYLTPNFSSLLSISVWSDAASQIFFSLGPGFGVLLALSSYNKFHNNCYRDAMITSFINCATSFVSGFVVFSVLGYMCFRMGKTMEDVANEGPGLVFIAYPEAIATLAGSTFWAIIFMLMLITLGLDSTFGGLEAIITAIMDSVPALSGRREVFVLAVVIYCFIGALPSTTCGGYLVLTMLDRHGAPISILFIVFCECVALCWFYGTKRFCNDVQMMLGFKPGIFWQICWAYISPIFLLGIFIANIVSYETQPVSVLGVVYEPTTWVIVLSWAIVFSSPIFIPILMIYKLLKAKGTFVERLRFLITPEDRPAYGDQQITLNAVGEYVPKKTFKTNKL
Chain of SmDAT (E9LD23 1-727): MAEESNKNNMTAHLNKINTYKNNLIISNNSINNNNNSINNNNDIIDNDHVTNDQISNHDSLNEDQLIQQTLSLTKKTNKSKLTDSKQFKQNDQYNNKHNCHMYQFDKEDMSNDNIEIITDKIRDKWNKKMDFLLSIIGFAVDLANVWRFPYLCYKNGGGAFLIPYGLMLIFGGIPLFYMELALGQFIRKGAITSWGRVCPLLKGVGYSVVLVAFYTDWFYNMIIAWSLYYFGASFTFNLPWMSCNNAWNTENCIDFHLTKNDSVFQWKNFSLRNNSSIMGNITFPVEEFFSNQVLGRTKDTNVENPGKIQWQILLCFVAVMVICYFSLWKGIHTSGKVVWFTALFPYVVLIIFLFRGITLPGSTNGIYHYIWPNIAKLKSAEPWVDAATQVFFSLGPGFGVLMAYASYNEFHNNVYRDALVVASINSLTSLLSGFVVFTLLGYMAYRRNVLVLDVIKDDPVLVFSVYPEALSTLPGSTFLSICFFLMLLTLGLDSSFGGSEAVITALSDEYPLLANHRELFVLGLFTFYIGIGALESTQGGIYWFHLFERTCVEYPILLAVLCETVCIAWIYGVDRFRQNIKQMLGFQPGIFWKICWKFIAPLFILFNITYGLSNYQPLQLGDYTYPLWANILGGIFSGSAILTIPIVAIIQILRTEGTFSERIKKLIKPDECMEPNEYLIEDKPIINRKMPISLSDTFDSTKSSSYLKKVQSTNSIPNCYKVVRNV

For the molecule `CN(C)CCCC1(c2ccc(F)cc2)OCc2cc(C#N)ccc21` (stereo not shown) [Citalopram], the Ki at SmDAT (setting [6]) came to 50.5 ± 4.7 µM.
Regarding `COC(=O)[C@H]1[C@@H](OC(=O)c2ccccc2)C[C@@H]2CC[C@H]1N2C` [Cocaine], the Ki at SmSERT was 35.4 ± 7.6 µM; at SmDAT (setting [6]), 29.4 ± 3.6 µM.
Take `CN(C)CCCN1c2ccccc2CCc2ccccc21` [Imipramine]: the Ki at SmSERT stood at 0.3 ± 0.1 µM.
In the case of `CC(N)Cc1ccccc1` (stereo not shown) [Amphetamine], in the data set on mSERT mutant YETQ-L563V [1], the “reversal of transport (efflux)” value is recorded as “did not elicit any significant reversal of transport”. Moreover, the amphetamine-elicited efflux result is “no significant amphetamine-elicited efflux” in data set [2], “substantial efflux” on wild-type human SERT and “no significant amphetamine-elicited efflux” in data set [3]. Further, the Ki at SmSERT came out at 393 ± 26 µM; on SmDAT, 10 ± 0.5 µM.
Take `NCCc1c[nH]c2ccc(O)cc12` [serotonin]: the Km in the data set with mSERT mutant YETQ-L563V [4] amounted to 4.7 ± 1.3 µM.
`CC(NC(C)(C)C)C(=O)c1cccc(Cl)c1` (stereo not shown) [Bupropion]: the Ki at SmDAT (setting [6]) turned out to be 242 ± 36 µM.

B1: WT mSERT (Mus musculus) (protein)
chain: METTPLNSQKVLSECKDKEDCQENGVLQKGVPTPADKAGPGQISNGYSAVPSTSAGDEAPHSTPAATTTLVAEIHQGERETWGKKMDFLLSVIGYAVDLGNIWRFPYICYQNGGGAFLLPYTIMAIFGGIPLFYMELALGQYHRNGCISIWKKICPIFKGIGYAICIIAFYIASYYNTIIAWALYYLISSFTDQLPWTSCKNSWNTGNCTNYFAQDNITWTLHSTSPAEEFYLRHVLQIHQSKGLQDLGTISWQLALCIMLIFTIIYFSIWKGVKTSGKVVWVTATFPYIVLSVLLVRGATLPGAWRGVVFYLKPNWQKLLETGVWVDAAAQIFFSLGPGFGVLLAFASYNKFNNNCYQDALVTSVVNCMTSFVSGFVIFTVLGYMAEMRNEDVSEVAKDAGPSLLFITYAEAIANMPASTFFAIIFFLMLITLGLDSTFAGLEGVITAVLDEFPHIWAKRREWFVLIVVITCILGSLLTLTSGGAYVVTLLEEYATGPAVLTVALIEAVVVSWFYGITQFCSDVKEMLGFSPGWFWRICWVAISPLFLLFIICSFLMSPPQLRLFQYNYPHWSIILGYCIGTSSVICIPIYIIYRLISTPGTLKERIIKSITPETPTEIPCGDIRMNAV
As to B1, the Michaelis-Menten constant (Km) in data set [5] was 3.4 ± 0.7 µM.

The term Ki denotes the dissociation constant of the complex between target and ligand, obtained from inhibition or displacement. Usually Km stands for the substrate concentration at which the rate is half of its maximum.
